From patent US11345711B2, “8,9-dihydroimidazo[1,2-a]pyrimido[5,4-e]pyrimidin-5(6H)-ones” (IMPACT THERAPEUTICS (SHANGHAI), INC, priority 2016, dated 2022)
pIC50, pKd: −log10 of the molar value. Where two headings read alike, the source gives them in different places.

Columns and labels:
[1] = tested on: LoVo cells; experiment: MTT based cell viability assay on LoVo cells; conditions: Homo sapiens, LoVo, 72 h, 3 d, read-out: IC50, growth inhibition of LoVo cells
In short: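 Inhibition of LoVo proliferation was derived as IC50 from a sigmoidal dose-response fit of cell survival. Readout was MTT (0.5 mg/mL, 4 h) with absorbance at 552/630/690 nm, after 3-day treatment at 37 °C. Eight-point series from 10 μM to 0.01 μM, DMSO control, 1% DMSO final.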

[2] = biological target: Wee1 (h) (Homo sapiens, UniProt P30291); experiment: Wee1 kinase (h) detection method, [γ-33P]-ATP filter assay; format: biochemical; conditions: C 10 μm compound
[3] = tested on: NCI-H1299 cells; experiment: MTT based cell viability assay on NCI-H1299 cells; conditions: Homo sapiens, read-out: IC50, growth inhibition of NCI-H1299 cells
In short: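 Viability read-out was MTT reduction (0.5 mg/mL, 4 h, absorbance 552/630/690 nm) after 3-day compound exposure at 37 °C of NCI-H1299 cells seeded at 1000 per well. Dilutions spanned 10 μM–0.01 μM in DMSO, final DMSO 1‰. Survival-versus-concentration curves were fitted sigmoidally to give IC50.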

[4] = biological target: T1, human Wee1 (amino acids M291 to K575) (Homo sapiens, UniProt P30291); experiment: Wee1 dissociation constant (Kd), KINOMEscan KdELECT competitive binding test; conditions: 11-point 3-fold dilution
T1 construct: host or cells: E. coli BL21 infected with T7 phage
Experimental: Determination of Wee1 Dissociation Constant (Kd)
The Wee1 dissociation constants (Kd) which measures the affinity of tested compound to Wee 1 have been determined in the KINOMEscan™ KdELECT Service at DiscoveRx. KINOMEscan™ assay is based on competitive binding test. The affinity index Kd for Wee1 is calculated by qPCR measurement of the compounds that compete with the immobilized ligand and bind to the enzyme activity center.
Wee1 kinase-tagged T7 phage strains were prepared in an E. coli BL21 strain. E. coli was grown to log-phase and infected with T7 phage and incubated with shaking at 32° C. until lysis. The lysates were centrifuged and filtered to remove cell debris. A partial length construct of human Wee1 (amino acids M291 to K575 based on reference sequence NP_003381.1) was expressed on the T7 phage coat. A short DNA sequence, embedded within the T7 phage genome, was used as amplicon for detection via qPCR. […]
Test compounds were prepared as 111× stocks in 100% DMSO. Kas were determined using an 11-point 3-fold compound dilution series with three DMSO control points. […] The kinase concentration in the eluates was measured by qPCR. qPCR reactions were assembled by adding 2.5 μL of kinase eluate to 7.5 μL of qPCR master mix containing 0.15 μM amplicon primers and 0.15 μM amplicon probe. […]
The constants (KdS) were calculated with a standard dose-response curve using the Hill equation: […]

T1 sequence (P30291 291-575): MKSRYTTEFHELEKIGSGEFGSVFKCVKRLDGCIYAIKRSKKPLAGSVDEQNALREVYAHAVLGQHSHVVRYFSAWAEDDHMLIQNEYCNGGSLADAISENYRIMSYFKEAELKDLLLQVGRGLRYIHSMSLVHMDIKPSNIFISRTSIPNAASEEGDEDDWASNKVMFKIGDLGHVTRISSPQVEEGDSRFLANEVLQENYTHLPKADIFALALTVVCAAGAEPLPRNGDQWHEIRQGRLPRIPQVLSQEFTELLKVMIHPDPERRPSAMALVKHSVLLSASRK
Sequence of Wee1 (h) (P30291 whole entry): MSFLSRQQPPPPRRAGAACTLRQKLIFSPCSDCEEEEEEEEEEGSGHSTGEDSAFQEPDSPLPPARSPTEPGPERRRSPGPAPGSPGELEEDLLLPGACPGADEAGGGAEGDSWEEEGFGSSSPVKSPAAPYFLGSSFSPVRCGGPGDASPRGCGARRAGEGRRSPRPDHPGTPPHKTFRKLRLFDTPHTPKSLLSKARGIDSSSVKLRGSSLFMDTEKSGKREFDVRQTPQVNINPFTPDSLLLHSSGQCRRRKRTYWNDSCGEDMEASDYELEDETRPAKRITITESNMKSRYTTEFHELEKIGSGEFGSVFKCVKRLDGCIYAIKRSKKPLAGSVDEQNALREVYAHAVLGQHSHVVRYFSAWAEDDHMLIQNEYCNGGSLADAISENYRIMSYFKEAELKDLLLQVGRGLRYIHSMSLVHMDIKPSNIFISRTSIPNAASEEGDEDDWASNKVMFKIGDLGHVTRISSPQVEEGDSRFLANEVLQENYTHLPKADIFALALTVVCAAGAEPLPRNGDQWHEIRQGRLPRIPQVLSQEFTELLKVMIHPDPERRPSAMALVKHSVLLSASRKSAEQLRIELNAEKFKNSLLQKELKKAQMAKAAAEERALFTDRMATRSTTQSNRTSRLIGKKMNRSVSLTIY

With CN1CCN(c2ccc(Nc3ncc4c(n3)N3CCN=C3N(c3ccccc3Cl)C4=O)cc2)CC1 [Example 1, 6-(2-chlorophenyl)-2-((4-(4-methylpiperazin-1-yl)phenyl)amino)-8,9-dihydroimidazo[1,2-a]pyrimido[5,4-e]pyrimidin-5(6H)-one] the pIC50 [1] was 5.45, the “Inh. (%) of Wee1 kinase enzyme activity” value [2] was 96% and the pIC50 ([3]; NCI-H1299 cells) was 5.80. It also gave a pKd [4] of 6.60.

In the case of CN1CCN(c2ccc(Nc3ncc4c(n3)N3CCN=C3N(c3c(F)cccc3Cl)C4=O)cc2)CC1 [Example 2, 6-(2-Chloro-6-fluorophenyl)-2-((4-(4-methylpiperazin-1-yl)phenyl)amino)-8,9-dihydroimidazo[1,2-a]pyrimido[5,4-e]pyrimidin-5(6H)-one], the pIC50 [1] was 6.37, the “Inh. (%) of Wee1 kinase enzyme activity” value [2] was 95% and the pIC50 ([3]; NCI-H1299, NCI-H1299 cells) was 6.11. For the same molecule, the pKd [4] was 7.47.
